Measured values as given in patent publication US20070099838A1, “Plant-derived peptides harboring water-cleaning and antimicrobial activities” (OPTIMA ENVIRONNEMENT S.A., priority 2003, published 2007).

Key:
[1] = Coagulating activity (coagulation agents for water treatment), graded relative to FLO; design: key: +++: higher activity than FLO; ++: equivalent activity of FLO; +: lower activity than FLO; −: no activity observed; details: coagulating activity compared with FLO
Description: (§1) More information regarding the detailed description of the invention (e.g. material & methods, experimental results) can be found in international patent application PCT/CH03/00568 which is incorporated by reference.

[2] = Antimicrobial (antibiotic) activity, graded relative to FLO; assay type: cell-based; design: key: +++: higher activity than FLO; ++: equivalent activity of FLO; +: lower activity than FLO; −: no activity observed; details: antimicrobial activity compared with FLO
Description: as §1

For “PQRCPSLRQAVQLTHQQQGQV [P2, derivative of FLO]”, the Coag. [1] was “++” and the antlbt. [2] was “+”.
With “RCGQQLRNISPPQRCPSLRQAVQLTHQQQGQ [P2.1, derivative of FLO]” the Coag. [1] was “−”.
In the case of “PQRCPSLRQAVQLTHQQQRQV [P2GR40, derivative of FLO]”, the Coag. [1] is reported as “+++” and the antlbt. [2] is reported as “++”.
With SLRQAVQLTHQ [P2b, derivative of FLO] the Coag. [1] was “−” and the antlbt. [2] was “−”.
In the case of PQRCPSLRQAV [P2a, derivative of FLO], the Coag. [1] is reported as “−” and the antlbt. [2] is reported as “−”.
In the case of “QGPGRQPDFQRCGQQLRNISPP [P1, derivative of FLO]”, the Coag. [1] is reported as “−”.
For AVQLTHQQQGQV [P2c, derivative of FLO], the Coag. [1] was “−” and the antlbt. [2] was “−”.
With “QGPGRQPDFQRCGQQLRNISPPQRCPSLRQAVQLTHQQQGQVGPQQRQMYRVASNIPST [Flo, protein called FLO, disclosed in WO 03/008441 A2; coagulation and antimicrobial agent, reference compound]” the Coag. [1] was “++” and the antlbt. [2] was “++”.
In the case of “GQVGPQQVRQMYRVASNIPST [P3, derivative of FLO]”, the Coag. [1] is reported as “−” and the antlbt. [2] is reported as “−”.
For “PQRCPSLRQAVQLTHQ [P2ab, derivative of FLO]”, the Coag. [1] was “++”.
